{"source": "patent US9649378B2", "about": "“Cancer methods” (priority 2010, dated 2017)", "key": {"[1]": {"test_system": "FGFR1", "sequence (P11362 22-376 limits assumed)": "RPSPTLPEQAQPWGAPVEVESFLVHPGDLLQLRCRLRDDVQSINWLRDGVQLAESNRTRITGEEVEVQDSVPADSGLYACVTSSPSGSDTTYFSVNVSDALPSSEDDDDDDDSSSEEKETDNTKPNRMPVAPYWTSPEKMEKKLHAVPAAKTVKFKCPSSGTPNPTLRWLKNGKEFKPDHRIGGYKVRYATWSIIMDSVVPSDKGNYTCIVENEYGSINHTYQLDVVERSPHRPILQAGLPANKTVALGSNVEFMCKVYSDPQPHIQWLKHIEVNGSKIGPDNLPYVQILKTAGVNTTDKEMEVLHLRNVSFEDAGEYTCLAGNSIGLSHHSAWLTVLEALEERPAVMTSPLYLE", "assay": "GST-OPCML pull-down assay", "assay_type": "binding", "conditions": "lysate of FGFR1 transfected cells or FGFR1 ECD protein", "experimental": "(§1) FIG. 2: OPCML interacts with the ECD of HER2 and FGFR1 but not EGFR. (A) (i): Co-IP was performed using protein extracts from SKOBS-V1.2, SKOBS-3.5 and BKS2.1 (SKOBS-3.5 and BKS2.1 express 3 and 20-fold more OPCML protein than normal physiological levels seen in OSE-C2). The goat polyclonal anti-OPCML (R & D Systems) was used in initial IP and products were detected on Western blots employing respective Abs for EGFR and HER2. The reciprocal IP with a monoclonal to ECD of HER2 (Calbiochem) is shown with successful immunoblotting for OPCML in the BKS2.1 stable line (expressing 20-fold more OPCML); (ii) Co-IP using the OPCML Ab in SKOBS-V1.2 and BKS2.1 lines were immunoblotted with anti-FGFR1αECD Ab. (B) A structural representation of GST-OPCML 1+2 and GST-OPCML 1+2+3 constructs with subsequent Western blot analysis of the fusion proteins. […] FGFR1 was also shown to bind GST-OPCML 1+2+3 and GST-OPCML 1+2 from the same pull-down with lysate from SK-OV-3 cells transiently transfected with FGFR1 cDNA.\n(§2) FIG. 17: OPCML directly interacts with EphA2, FGFR1 and HER2, but not EGFR. (A) Immuno-precipitation (IP) for OPCML showing positive immunoblots for EphA2, FGFR1 and HER2. […] (B) A schematic representation of GST-OPCML domain 1-3 construct. (C). […] The presence of OPCML fusion proteins in these assays was verified by immunoblotting (IB, bottom panel).\n(§3) Pull-down assays were performed using recombinant GST-OPCML fusion proteins bound to magnetic glutathione beads (Promega). Cell lysates prepared as for immunoprecipitation, proteins produced using TNT in vitro Rabbit reticulocyte lysate expression system (Promega) or expressed in bacteria were used analysed for interactions."}, "[2]": {"test_system": "HER2 3+ recurrent disease (ovarian and breast cancer)", "assay": "response to lapatinib in patients by RECIST criteria versus OPCML IHC", "assay_type": "in vivo, human", "parameters": "key: SD = stable disease; PR = partial response; PD = progressive disease", "conditions": "individual cases 1-8, HER2 3+", "experimental": "We next tested whether OPCML could be used to predict response to lapatinib in ovarian and breast cancer. Histology was obtained by new biopsy of recurrent disease and TTP (time in months to progression from start of therapy until progression) assessed. Docetaxel and anthracyclines were administered for a maximum of 6 cycles and capecitabine was administered until disease progression or unacceptable toxicity. HER2 immunohistochemistry (IHC) was performed using the Dako Herceptest kit: 3+ in all cases."}, "[3]": {"test_system": "phospho-ERK", "assay": "lapatinib-induced pERK attenuation after OPCML siRNA knockdown in OSE-C2 cells", "description": "(§4) (B) The effect of OPCML knockdown on the efficiency of lapatinib-induced pERK attenuation was analysed; densitometry of pERK signal (mean values of 3 independent experiments).\nEndogenous OPCML was knocked down in OSE-C2 cells by transient transfection of a specific pool of 3 siRNAs (Stealth knockdown-Invitrogen) using lipofectamine RNAiMAX reagent.\nWe then investigated whether siRNA knockdown of physiological OPCML expression in normal OSE-C2 cells could affect sensitivity to lapatinib."}, "[4]": {"test_system": "phospho-ERK", "assay": "EGF induced phospho-ERK activation in OPCML transfected (BKS2.1) and control (SKOBS-V1.2) cells", "description": "as §4\nOPCML transfected and control cells were pre-incubated with lapatinib, trastuzumab, cituximab, erlotinib and gefitinib."}, "[5]": {"target": "T1, EGFR (Homo sapiens, UniProt P00533)", "T1 construct": "pull-down experiments with either SK-OV-3 cell lysates (expressing HER2 and EGFR); endogenous in cells; host or cells: SK-OV-3", "assay": "GST-OPCML pull-down assay", "assay_type": "binding", "conditions": "SK-OV-3 cell lysate", "experimental": "as §1, §2, §3"}, "[6]": {"test_system": "HER2", "assay": "GST-OPCML pull-down assay", "assay_type": "binding", "conditions": "SK-OV-3 lysate or in vitro translated HER2ECD", "experimental": "as §1, §2, §3"}, "[7]": {"test_system": "OPCML", "assay": "induction of OPCML expression by growth factors in serum starved SK-OV-3 cells (qRT-PCR, Western)", "assay_type": "cell-based", "conditions": "50 ng/ml EGF", "description": "Quantitative reverse-transcription PCR (qRT-PCR) analysis of gene expression was carried out on an Applied Biosystems 7900HT thermal cycler using SYBR green I technology. Premixed qPCR reagent, Platinum® Quantitative PCR SuperMix-UDG with ROX (Invitrogen, UK), was used for amplification. The expression of specific genes was normalized to the expression of the endogenous control gene HPRT1."}, "[8]": {"test_system": "OPCML", "assay": "induction of OPCML expression by growth factors in a panel of ovarian cancer cell lines", "assay_type": "cell-based", "conditions": "data not shown", "source_text": "OPCML is a non-transmembrane, external lipid leaflet GPI-anchored protein, and is frequently lost from cells by somatic inactivation of the gene."}, "[9]": {"conditions": "OPCML transfected versus control cells, EGF induced phospho-ERK"}}, "note": "Values joined by “and” are separate entries in the source; they are usually repeats but may differ in a detail not shown here. Equal entries are not always repeated. Where two headings read alike, the source gives them in different places."}
{"molecule": "GST-OPCML D2+3: GST/OPCML domain fusion protein with domains 2 and 3", "values": [{"measurement": "interaction with FGFR1", "setting": "[1]", "result": "interacted with FGFR1"}]}
{"molecule": "CS(=O)(=O)CCNCc1ccc(-c2ccc3ncnc(Nc4ccc(OCc5cccc(F)c5)c(Cl)c4)c3c2)o1.Cc1ccc(S(=O)(=O)O)cc1.Cc1ccc(S(=O)(=O)O)cc1.O", "note": "[lapatinib, N-(3 chloro-4-{[(3-fluorophenyl)methyl]oxy}phenyl)-6-[5-({[2(methylsulfonyl)ethyl]amino}methyl)-2-furanyl]-4-quinazolinamine bis (4 methylbenzenesulfonate) monohydrate]", "values": [{"measurement": "Response to lapatinib", "setting": "[2]", "result": "SD (2×) and PD (2×) and PR (4×)"}, {"measurement": "extent of inhibition of pERK signal", "setting": "[3]; knockdown by siRNA to OPCML, P=0.0009", "result": 47, "unit": "%"}, {"measurement": "reduction of EGF-induced pERK signal", "setting": "[3]; non-silencing (non-si) duplex, densitometry, mean of 3 experiments", "result": 70, "unit": "%"}, {"measurement": "increase in sensitivity: reduction of effective concentration required to abolish the phospho-ERK signal", "setting": "[4]; BKS2.1 compared with SKOBS-V1.2, EGF 50 ng/ml, monohydrate", "result": "> 10 fold and 10 fold"}, {"measurement": "OPCML mediated sensitization", "setting": "[4]; [9]", "result": "strong OPCML mediated sensitization"}]}
{"molecule": "GST-OPCML D1+2: truncated OPCML ECD lacking Ig domain 3 fused to GST", "values": [{"measurement": "interaction with FGFR1", "setting": "[1]", "result": "interacted with FGFR1"}, {"measurement": "interaction with FGFR1", "setting": "[1]; listed as GST-OPCML 1+2", "result": "shown to bind"}]}
{"molecule": "COc1cc2ncnc(Nc3ccc(F)c(Cl)c3)c2cc1OCCCN1CCOCC1", "note": "[gefitinib]", "values": [{"measurement": "OPCML mediated sensitization", "setting": "[4]; [9]", "result": "no sensitization"}]}
{"molecule": "GST-OPCML D1+2+3: full length OPCML extracellular domain (Ig domains 1-3) fused to GST", "values": [{"measurement": "binding of EGFR", "setting": "[5]", "result": "no binding of EGFR"}, {"measurement": "interaction with FGFR1", "setting": "[1]", "result": "interacted with FGFR1"}, {"measurement": "interaction with FGFR1", "setting": "[1]; listed as GST-OPCML 1+2+3", "result": "shown to bind"}, {"measurement": "interaction with FGFR1", "setting": "[1]; listed as GST-OPCML 1-3", "result": "specific binding"}, {"measurement": "interaction with FGFR1", "setting": "[1]; listed as GST-OPCML D1-3", "result": "interacting specifically"}, {"measurement": "interaction with HER2", "setting": "[6]", "result": "interacted"}, {"measurement": "interaction with HER2", "setting": "[6]; listed as GST-OPCML 1+2+3", "result": "binding of HER2"}, {"measurement": "interaction with HER2", "setting": "[6]; listed as GST-OPCML 1-3", "result": "specific binding"}, {"measurement": "interaction with HER2", "setting": "[6]; listed as GST-OPCML D1-3", "result": "interacting specifically"}]}
{"molecule": "C#Cc1cccc(Nc2ncnc3cc(OCCOC)c(OCCOC)cc23)c1", "note": "[erlotinib]", "values": [{"measurement": "OPCML mediated sensitization", "setting": "[4]", "result": "no sensitization"}]}
{"molecule": "EGF: human recombinant epidermal growth factor (Promega)", "values": [{"measurement": "time of maximal OPCML mRNA expression", "setting": "[7]", "result": 30, "unit": "min"}, {"measurement": "ovarian cancer cell lines with rapid OPCML RNA and protein expression, of lines treated", "setting": "[8]", "result": "4/4"}]}
